Values of other authors in patent publication US6022558A, “Transdermal preparations of oxicams” (priority 1997, dated 2000).

Legend:
[1] = rats and rabbits
[2] = oral administration
[3] = single or multiple doses in patients

CN1C(C(=O)Nc2ccccn2)=C(O)c2ccccc2S1(=O)=O [piroxicam, 4-hydroxyl-2-methyl-N-(2-pyridyl)-2H-1,2-benzo-thiazine-3-carboxamide-1,1-dioxide]
Oral absorption [1]: almost completely absorbed
Second plasma maximum [2]: shows a second maximum plasma concentration due to hepatic and intestinal recycling
Cmax and AUC dependence on dose [3]: proportional to the dose administered
Pharmacokinetic linearity [3]: possessed a linear pharmacokinetic property
